We go through 2 compounds from PMC12785453, “Oral Fluid Concentrations and Pharmacological Effects of Clephedrone and Methylone in Humans” (International Journal of Molecular Sciences, 2025).

Where two headings read alike, the source gives them in different places.

Data set [1] relates to MDMA-like discriminative stimulus effects. The arrangement: method as in PMID 30986635. The conditions noted are these: cited from earlier work.
A further data set relates to healthy volunteers. Description: Physiological effects (SBP, DBP, HR, T), naturalistic observational clephedrone study. The class given is in vivo, humans. An excerpt: The study evaluating the acute effects of clephedrone was designed as a non-controlled, prospective, observational, and naturalistic study. The procedures and evaluations included in this study have been described in previous studies evaluating other synthetic cathinones (mephedrone, methylone, alpha-PVP, NEP, HEXEN), phenethylamines (2C-B and 2C-E), or synthetic cannabinoids (JWH-122, JWH-210, UR-144).
This study consisted of one experimental session in which participants (N = 8; 6 women, 2 men) selected their oral dose of clephedrone based on their drug use experience and preferences. According to their dose selection, 3 women and 1 man ingested 100 mg of clephedrone, while the remaining 3 women and 1 man opted for a higher dose of 150 mg. […] Participants were recruited by word of mouth by the harm reduction organization Energy Control in Barcelona (Associació Benestar i Desenvolupament, ABD).
Participants of the naturalistic clephedrone study were summoned at 15:00 h at the private club where sessions were carried out. The club remained closed to the public until the end of the session, approximately at 21:00 h. As a naturalistic study, participants were left free to talk, read, play games, or listen to music in the time between study evaluations. To avoid possible influences between participants, they were asked to refrain from talking about the effects of the self-administered substance. The experimental sessions of the controlled pilot trial were carried out at the Clinical Research Unit (UPIC) of the Germans Trias i Pujol hospital, where participants were summoned at 7:45 a.m. after fasting overnight and remained there for approximately 11 h.
In the naturalistic clephedrone study, non-invasive systolic blood pressure (SBP), diastolic blood pressure (DBP), and heart rate (HR) were assessed, while subjects remained seated with an automatic Omron monitor (Omron, Healthcare, Kyoto, Japan) at baseline, 0.50, 1, 1.5, 2, 3, 4 and 5 h (h) after self-administration. Forehead cutaneous temperature was determined at the same time points using a cutaneous infrared thermometer.
For statistical analysis, values of physiological (SBP, DBP, HR, and T) and subjective effects (VAS, ARCI, and VESSPA-SSE) were baseline–adjusted. Maximum effects (Emax) and the time needed to reach maximum effects (Tmax) were determined, and the area under the curve up to 5 h (AUC0–5h) for clephedrone and up to 6 h (AUC0–6h) for methylone was calculated using the trapezoidal rule. Emax and AUC values are presented as mean ± standard deviation, whereas Tmax is presented in median (range).
To find possible significant changes through the time course compared to baseline, a Dunnett multiple comparison test was carried out to compare each time point with baseline in both drug conditions. For clephedrone the comparisons were 0–0.5 h, 0–1 h, 0–1.5 h, 0–2 h, 0–3 h, 0–4 h and 0–5 h, and for methylone this analysis included 0–0.25 h, 0–0.5 h, 0–0.75 h, 0–1 h, 0–1.5 h, 0–2 h, 0–3 h, 0–4 h and 0–6 h. Given their different study designs, no comparative analysis between the time courses of both synthetic cathinones was conducted.

Data set [2] is described as follows: Oral fluid concentrations of methylone (LC-MS/MS). The class given is in vivo, humans. The conditions noted are these: 150 or 200 mg oral. On the procedure: Methylone pharmacology was evaluated in a study designed as a randomized, double-blind, placebo-controlled, crossover clinical trial. Four pilot studies were conducted administering methylone at oral doses of 50 (n = 3), 100 (n = 6), 150 (n = 5), and 200 mg (n = 7). Participants attended 3 experimental sessions separated by a one-week wash-out period and received two doses of methylone (one dose per experimental session) compared to placebo, except in the last pilot study in which participants received one dose of methylone, compared to MDMA and placebo. However, in this manuscript, only the results corresponding to the highest methylone doses (n = 12; 150 and 200 mg; mean dose = 179.2 mg) are presented, to enable comparison with clephedrone self-administration. Participants were recruited by word of mouth in the volunteer database of the clinical pharmacology unit.
In both studies, oral fluid samples for the quantification of clephedrone and methylone concentration were collected using Salivette standard tubes. For clephedrone, oral fluid samples were collected at baseline, 0.50, 1, 1.5, 2, 3, 4, and 5 h, whereas for methylone, they were collected at baseline, 0.25, 0.50, 0.75, 1, 1.5, 2, 3, 4, 6, 8, and 10 h. After collection, all samples were centrifuged and stored frozen at −20 °C until analysis. Clephedrone oral fluid concentrations were determined using a previously validated gas chromatography coupled to mass spectrometry systems (GC-MS/MS). Methylone was quantified via liquid chromatography–tandem mass spectrometry (LC–MS/MS).
For oral fluid concentrations of clephedrone and methylone, only a descriptive analysis was performed to obtain the main pharmacokinetics data, including the maximum concentration (Cmax), the time required to reach maximum concentrations (Tmax), and AUC up to 5 h (AUC0–5h) for clephedrone and up to 6 h (AUC0–6h) for methylone. These parameters were calculated using the Pharmacokinetic Functions for Microsoft Excel (Joel Usansky, Atul Desai, and Diane Tang-Liu, Department of Pharmacokinetics and Drug Metabolism, Allergan, Irvine, CA, USA). […]

Where [3] appears, read: 100 or 150 mg oral, n=8, listed as clephedrone.
Where [4] appears, read: AUC0–5h, 100 or 150 mg oral, n=8.

With `CNC(C)C(=O)c1ccc(Cl)cc1` (centres unmarked) [Clephedrone, 4-chloromethcathinone], the “Substitution for MDMA in drug discrimination” value in data set [1] (rodents) is “fully substituted for MDMA”. For the same compound, in the data set with healthy volunteers (100 or 150 mg oral), the “Onset of cardiovascular effects after self-administration” value stood at 2 h; the “Tmax of maximum effects on SBP, DBP and HR” value fell in the range of 2.5 to 3.0 h. Moreover, in the data set with healthy volunteers (100 or 150 mg oral, n=8), the “DBP Emax” value was 13.63 ± 11.74 mmHg, the “HR Emax” value is 17.19 ± 25.17 bpm and the “SBP Emax” value came to 16.81 ± 13.11 mmHg. In addition, in the data set with healthy volunteers (setting [3]), the “DBP Emax” value came to 13.6 mmHg, the “HR Emax” value is given as 17.19 bpm, the “HR Tmax” value is listed as 3 h and the “SBP Emax” value is on record as 16.81 mmHg. For the same compound, in the data set on healthy volunteers (setting [4]), the “DBP AUC0-5/6 h” value is 32.64 ± 22.06 mmHg·h, the “HR AUC0-5/6 h” value is 37.20 ± 40.72 bpm·h and the “SBP AUC0-5/6 h” value is recorded as 41.77 ± 13.86 mmHg·h. Besides, the “T AUC0-5/6 h” value in the data set with healthy volunteers (AUC0–5h, forehead cutaneous temperature, 100 or 150 mg oral, n=8) is 1.25 ± 1.05 °C·h. In the data set with healthy volunteers (all administered doses (100 or 150 mg oral)), the “Tolerability, serious adverse events” value is “well tolerated”. Further, the “T Emax” value with healthy volunteers (forehead cutaneous temperature, 100 or 150 mg oral, n=8) was determined as 0.63 ± 0.35 °C.
As a reminder, the Cmax is the maximum level reached in the sampled fluid or tissue. Take `CNC(C)C(=O)c1ccc2c(c1)OCO2` (centres unmarked) [Methylone, 3,4-methylenedioxy-N-methylcathinone]: the “Substitution for MDMA in drug discrimination” value in data set [1] (rats) was > 80%. Further, the “Oral fluid concentration at 6 h, times lower than Cmax” value in data set [2] (6 h) is reported as 11 times. Further, in data set [2] (human, oral fluid, n=12), the highest level (Cmax) was 17200 ng/mL. Moreover, the AUC(0-t) in data set [2] (human, oral fluid, n=12, read-out: Oral fluid AUC0–6 h) stood at 44700 ng·h/mL.
